The NIST ThermoML archive (doi:10.1021/je049807n)

Key:
[1] = for surface tension liquid-gas: Pendant drop shape; for mass density: 101.33 kPa, Liquid
[2] = xn = mol fraction of the nth substance listed; settings: 298.15 K; for surface tension liquid-gas: Pendant drop shape; for mass density: 101.3 kPa, Liquid

Cc1ccc(C)c(C)c1 [1,2,4-trimethylbenzene]
[1], 298.15 K
Settings	mass density [kg/m3]	surface tension liquid-gas [mN/m]
–	871.64	29.25

Cc1ccc(C)c(C)c1 [1,2,4-trimethylbenzene] + CC(C)(C)O
[2]
Settings	mass density [kg/m3]	surface tension liquid-gas [mN/m]
x2 = 0.0498	867.42	–
x2 = 0.1	863.45	28.12
x2 = 0.1496	859.56	–
x2 = 0.2007	855.56	27
x2 = 0.2495	851.7	–
x2 = 0.3001	847.58	25.92
x2 = 0.351	843.33	–
x2 = 0.4002	839.16	24.93
x2 = 0.4496	834.81	–
x2 = 0.5005	830.25	24.06
x2 = 0.5494	825.78	–
x2 = 0.6006	821.1	23.23
x2 = 0.6502	816.48	–
x2 = 0.6991	811.94	22.46
x2 = 0.7491	807.12	–
x2 = 0.7993	802.21	21.7
x2 = 0.85	797.46	–
x2 = 0.9003	791.86	20.96
x2 = 0.9499	786.65	–

Cc1ccc(C)c(C)c1 [1,2,4-trimethylbenzene] + CC(C)CO
[2]
Settings	mass density [kg/m3]	surface tension liquid-gas [mN/m]
x2 = 0.0509	868.47	–
x2 = 0.1004	865.43	28.42
x2 = 0.153	862.28	–
x2 = 0.2018	859.33	27.54
x2 = 0.249	856.45	–
x2 = 0.3002	853.23	26.7
x2 = 0.3487	850.09	–
x2 = 0.3996	846.71	25.95
x2 = 0.4494	843.33	–
x2 = 0.4995	839.86	25.29
x2 = 0.5488	836.34	–
x2 = 0.6002	832.59	24.72
x2 = 0.6508	828.75	–
x2 = 0.6989	824.99	24.16
x2 = 0.7484	820.99	–
x2 = 0.8002	816.62	23.6
x2 = 0.8506	812.2	–
x2 = 0.8984	807.85	22.98
x2 = 0.9496	802.94	–

Cc1ccc(C)c(C)c1 [1,2,4-trimethylbenzene] + CCC(C)O
[2]
Settings	mass density [kg/m3]	surface tension liquid-gas [mN/m]
x2 = 0.0497	868.48	–
x2 = 0.1008	865.35	28.58
x2 = 0.1486	862.53	–
x2 = 0.201	859.43	27.94
x2 = 0.2507	856.46	–
x2 = 0.2985	853.6	27.32
x2 = 0.3492	850.47	–
x2 = 0.4008	847.25	26.71
x2 = 0.4506	844.12	–
x2 = 0.4997	840.93	26.15
x2 = 0.5486	837.68	–
x2 = 0.6008	834.12	25.59
x2 = 0.6505	830.64	–
x2 = 0.6994	827.12	25.07
x2 = 0.7503	823.25	–
x2 = 0.7999	819.39	24.56
x2 = 0.8496	815.42	–
x2 = 0.9002	811.21	24.02
x2 = 0.9489	806.96	–

Cc1ccc(C)c(C)c1 [1,2,4-trimethylbenzene] + CCCCO
[2]
Settings	mass density [kg/m3]	surface tension liquid-gas [mN/m]
x2 = 0.0499	869.1	–
x2 = 0.1013	866.38	28.81
x2 = 0.1492	863.89	–
x2 = 0.2002	861.22	28.42
x2 = 0.2499	858.58	–
x2 = 0.2992	855.92	28.04
x2 = 0.3503	853.09	–
x2 = 0.4009	850.22	27.61
x2 = 0.4491	847.4	–
x2 = 0.5012	844.25	27.15
x2 = 0.5498	841.19	–
x2 = 0.5985	838.02	26.65
x2 = 0.6501	834.53	–
x2 = 0.6987	831.1	26.08
x2 = 0.7499	827.34	–
x2 = 0.8001	823.46	25.49
x2 = 0.8501	819.4	–
x2 = 0.9002	815.1	24.86
x2 = 0.9503	810.56	–

Cc1cc(C)cc(C)c1 [1,3,5-trimethylbenzene]
[1], 298.15 K
Settings	mass density [kg/m3]	surface tension liquid-gas [mN/m]
–	861.03	28.09

Cc1cc(C)cc(C)c1 [1,3,5-trimethylbenzene] + CC(C)(C)O
[2]
Settings	mass density [kg/m3]	surface tension liquid-gas [mN/m]
x2 = 0.0502	857.2	–
x2 = 0.1015	853.43	27.18
x2 = 0.1482	850.08	–
x2 = 0.2007	846.28	26.24
x2 = 0.2509	842.63	–
x2 = 0.2995	839.02	25.35
x2 = 0.3484	835.31	–
x2 = 0.3995	831.37	24.51
x2 = 0.449	827.48	–
x2 = 0.4992	823.4	23.75
x2 = 0.5483	819.43	–
x2 = 0.6005	815.1	23.02
x2 = 0.6502	810.91	–
x2 = 0.6987	806.81	22.32
x2 = 0.75	802.48	–
x2 = 0.7995	798.32	21.61
x2 = 0.8501	793.99	–
x2 = 0.9002	789.58	20.86
x2 = 0.9509	785.25	–

Cc1cc(C)cc(C)c1 [1,3,5-trimethylbenzene] + CC(C)CO
[2]
Settings	mass density [kg/m3]	surface tension liquid-gas [mN/m]
x2 = 0.0512	858.13	–
x2 = 0.1028	855.39	27.65
x2 = 0.1517	852.81	–
x2 = 0.1994	850.26	27.21
x2 = 0.2514	847.49	–
x2 = 0.3006	844.78	26.67
x2 = 0.3529	841.86	–
x2 = 0.4019	839.03	26.09
x2 = 0.4494	836.25	–
x2 = 0.4995	833.24	25.51
x2 = 0.548	830.3	–
x2 = 0.6002	827.02	24.88
x2 = 0.6495	823.78	–
x2 = 0.699	820.47	24.25
x2 = 0.7501	816.96	–
x2 = 0.7998	813.38	23.61
x2 = 0.8504	809.65	–
x2 = 0.9006	805.81	22.97
x2 = 0.9485	802.06	–

Cc1cc(C)cc(C)c1 [1,3,5-trimethylbenzene] + CCC(C)O
[2]
Settings	mass density [kg/m3]	surface tension liquid-gas [mN/m]
x2 = 0.0508	858.12	–
x2 = 0.101	855.38	27.77
x2 = 0.1511	852.75	–
x2 = 0.2007	850.14	27.36
x2 = 0.25	847.61	–
x2 = 0.2986	845.03	26.94
x2 = 0.3488	842.36	–
x2 = 0.4007	839.55	26.47
x2 = 0.4495	836.88	–
x2 = 0.5017	833.96	25.99
x2 = 0.5484	831.33	–
x2 = 0.6004	828.33	25.49
x2 = 0.6508	825.34	–
x2 = 0.6991	822.4	24.98
x2 = 0.7496	819.25	–
x2 = 0.8009	816.01	24.45
x2 = 0.8504	812.75	–
x2 = 0.9002	809.42	23.94
x2 = 0.9505	805.99	–

Cc1cc(C)cc(C)c1 [1,3,5-trimethylbenzene] + CCCCO
[2]
Settings	mass density [kg/m3]	surface tension liquid-gas [mN/m]
x2 = 0.0493	858.72	–
x2 = 0.1006	856.4	27.92
x2 = 0.1512	854.14	–
x2 = 0.2011	851.93	27.65
x2 = 0.2514	849.67	–
x2 = 0.3002	847.43	27.33
x2 = 0.3487	845.16	–
x2 = 0.4003	842.68	26.91
x2 = 0.4535	840.04	–
x2 = 0.5001	837.66	26.46
x2 = 0.5484	835.11	–
x2 = 0.6005	832.26	25.99
x2 = 0.65	829.43	–
x2 = 0.6993	826.54	25.53
x2 = 0.7497	823.44	–
x2 = 0.7999	820.23	25.05
x2 = 0.85	816.86	–
x2 = 0.901	813.3	24.58
x2 = 0.9506	809.67	–

CC(C)CO [2-methyl-1-propanol]
[1], 298.15 K
Settings	mass density [kg/m3]	surface tension liquid-gas [mN/m]
–	797.83	22.3

CC(C)(C)O [2-methylpropan-2-ol]
[1], 298.15 K
Settings	mass density [kg/m3]	surface tension liquid-gas [mN/m]
–	780.85	20.13

CCCCO [butan-1-ol]
[1], 298.15 K
Settings	mass density [kg/m3]	surface tension liquid-gas [mN/m]
–	805.8	24.18

CCC(C)O (configuration not stated) [butan-2-ol]
[1]
Settings	mass density [kg/m3]	surface tension liquid-gas [mN/m]
298.15 K	802.34	23.46
303.15 K	–	22.14
